According to PubChem BioAssay (NCI):
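Five compound concentrations were applied to cells in 96-well plates for 48 hours; endpoints were derived by simple linear interpolation of the resulting dose-response curve. TGI is the concentration that stops growth completely.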

Tests used:
Test in all cases: NCI tumour cell line growth inhibition, 48 h
[1] = test system: A498 renal
[2] = test system: A549 NSCLC
[3] = test system: CAKI-1 renal
[4] = test system: CCRF-CEM leukemia
[5] = test system: COLO 205 colon
[6] = test system: DLD-1 colon
[7] = test system: DMS 114 small cell lung
[8] = test system: DMS 273 small cell lung
[9] = test system: EKVX NSCLC
[10] = test system: HCC-2998 colon
[11] = test system: HCT-116 colon
[12] = test system: HCT-15 colon
[13] = test system: HL-60(TB) leukemia
[14] = test system: HOP-18 NSCLC
[15] = test system: HOP-62 NSCLC
[16] = test system: HOP-92 NSCLC
[17] = test system: HT29 colon
[18] = test system: IGROV1 ovarian
[19] = test system: K-562 leukemia
[20] = test system: KM12 colon
[21] = test system: KM20L2 colon
[22] = test system: LOX IMVI melanoma
[23] = test system: M19-MEL melanoma
[24] = test system: MALME-3M melanoma
[25] = test system: MCF7 breast
[26] = test system: MOLT-4 leukemia
[27] = test system: NCI-H226 lung
[28] = test system: NCI-H23 lung
[29] = test system: NCI-H460 lung
[30] = test system: NCI-H522 lung
[31] = test system: NCI/ADR-RES ovarian
[32] = test system: OVCAR-3 ovarian
[33] = test system: OVCAR-4 ovarian
[34] = test system: OVCAR-5 ovarian
[35] = test system: OVCAR-8 ovarian
[36] = test system: P388 leukemia
[37] = test system: P388/ADR leukemia
[38] = test system: RPMI-8226 leukemia
[39] = test system: RXF 393 renal
[40] = test system: SF-268 CNS
[41] = test system: SF-295 CNS
[42] = test system: SF-539 CNS
[43] = test system: SK-MEL-2 melanoma
[44] = test system: SK-MEL-28 melanoma
[45] = test system: SK-MEL-5 melanoma
[46] = test system: SK-OV-3 ovarian
[47] = test system: SN12C renal
[48] = test system: SN12K1 renal
[49] = test system: SNB-19 CNS
[50] = test system: SNB-75 CNS
[51] = test system: SNB-78 CNS
[52] = test system: SW-620 colon
[53] = test system: U251 CNS
[54] = test system: UACC-257 melanoma
[55] = test system: UACC-62 melanoma
[56] = test system: UO-31 renal
[57] = test system: XF 498 CNS

## O=C(O)CCC(NC(=O)c1ccc(Nc2nc3ccc(C(F)(F)F)cc3nc2-c2ccccc2)cc1)C(=O)O (stereo not given)
[1]
  TGI: > 100 µM
[2]
  TGI: > 100 µM
[3]
  TGI: > 100 µM
[4]
  TGI: > 100 µM
[5]
  TGI: > 100 µM
[6]
  TGI: > 100 µM
[7]
  TGI: > 100 µM
[8]
  TGI: > 100 µM
[9]
  TGI: > 100 µM
[10]
  TGI: > 100 µM
[11]
  TGI: > 100 µM
[12]
  TGI: > 100 µM
[13]
  TGI: > 100 µM
[14]
  TGI: > 100 µM
[15]
  TGI: > 100 µM
[16]
  TGI: > 100 µM
[17]
  TGI: > 100 µM
[18]
  TGI: > 100 µM
[19]
  TGI: > 100 µM
[20]
  TGI: > 100 µM
[21]
  TGI: > 100 µM
[22]
  TGI: > 100 µM
[23]
  TGI: > 100 µM
[24]
  TGI: > 100 µM
[25]
  TGI: > 100 µM
[26]
  TGI: > 100 µM
[27]
  TGI: > 100 µM
[28]
  TGI: > 100 µM
[29]
  TGI: > 100 µM
[30]
  TGI: > 100 µM
[31]
  TGI: > 100 µM
[32]
  TGI: > 100 µM
[33]
  TGI: > 100 µM
[34]
  TGI: > 100 µM
[35]
  TGI: > 100 µM
[36]
  TGI: > 100 µM
[37]
  TGI: > 100 µM
[38]
  TGI: > 100 µM
[39]
  TGI: > 100 µM
[40]
  TGI: > 100 µM
[41]
  TGI: > 100 µM
[42]
  TGI: > 100 µM
[43]
  TGI: > 100 µM
[44]
  TGI: > 100 µM
[45]
  TGI: > 100 µM
[46]
  TGI: > 100 µM
[47]
  TGI: > 100 µM
[48]
  TGI: > 100 µM
[49]
  TGI: > 100 µM
[50]
  TGI: > 100 µM
[51]
  TGI: > 100 µM
[52]
  TGI: > 100 µM
[53]
  TGI: > 100 µM
[54]
  TGI: > 100 µM
[55]
  TGI: > 100 µM
[56]
  TGI: > 100 µM
[57]
  TGI: > 100 µM

## O=Cc1c(Cn2ccnc2)c2cc([N+](=O)[O-])ccc2n1Cc1ccccc1
[1]
  TGI: > 100 µM
[2]
  TGI: > 100 µM
[3]
  TGI: 97.3 µM
[4]
  TGI: > 100 µM
[5]
  TGI: > 100 µM
[6]
  TGI: > 100 µM
[7]
  TGI: > 100 µM
[8]
  TGI: > 100 µM
[9]
  TGI: > 100 µM
[10]
  TGI: > 100 µM
[11]
  TGI: > 100 µM
[12]
  TGI: > 100 µM
[13]
  TGI: > 41.9 µM
[14]
  TGI: > 100 µM
[15]
  TGI: 90.2 µM
[16]
  TGI: > 100 µM
[17]
  TGI: > 100 µM
[18]
  TGI: > 100 µM
[19]
  TGI: > 100 µM
[20]
  TGI: > 100 µM
[21]
  TGI: > 100 µM
[22]
  TGI: > 100 µM
[23]
  TGI: > 100 µM
[24]
  TGI: > 100 µM
[25]
  TGI: > 100 µM
[26]
  TGI: > 100 µM
[27]
  TGI: > 100 µM
[28]
  TGI: > 100 µM
[29]
  TGI: > 100 µM
[30]
  TGI: > 100 µM
[31]
  TGI: > 100 µM
[32]
  TGI: > 100 µM
[33]
  TGI: > 100 µM
[34]
  TGI: > 100 µM
[35]
  TGI: > 100 µM
[36]
  TGI: > 100 µM
[37]
  TGI: > 100 µM
[38]
  TGI: > 100 µM
[39]
  TGI: > 100 µM
[40]
  TGI: > 100 µM
[41]
  TGI: > 92.3 µM
[42]
  TGI: > 100 µM
[43]
  TGI: > 100 µM
[44]
  TGI: > 100 µM
[45]
  TGI: > 100 µM
[46]
  TGI: > 100 µM
[47]
  TGI: > 100 µM
[48]
  TGI: > 100 µM
[49]
  TGI: > 100 µM
[50]
  TGI: > 100 µM
[51]
  TGI: > 100 µM
[52]
  TGI: > 100 µM
[53]
  TGI: > 100 µM
[54]
  TGI: > 100 µM
[55]
  TGI: > 100 µM
[56]
  TGI: > 100 µM
[57]
  TGI: > 100 µM

## Cn1c(/C=C/CO)c(CO)c2c1C(=O)C=C(N1CC1)C2=O
[1]
  TGI: 0.0235 µM
[2]
  TGI: < 0.01 µM
[3]
  TGI: 0.0588 µM
[4]
  TGI: 23.9 µM
[5]
  TGI: 0.0236 µM
[6]
  TGI: 0.662 µM
[7]
  TGI: 0.0153 µM
[8]
  TGI: < 0.0107 µM
[9]
  TGI: 0.178 µM
[10]
  TGI: 0.0203 µM
[11]
  TGI: 1.02 µM
[12]
  TGI: < 0.0159 µM
[13]
  TGI: 0.682 µM
[14]
  TGI: < 0.01 µM
[15]
  TGI: < 0.0139 µM
[16]
  TGI: 0.488 µM
[17]
  TGI: 0.0534 µM
[18]
  TGI: 0.197 µM
[19]
  TGI: 0.378 µM
[20]
  TGI: 0.0172 µM
[21]
  TGI: 0.0639 µM
[22]
  TGI: 0.0102 µM
[23]
  TGI: < 0.011 µM
[24]
  TGI: 0.024 µM
[25]
  TGI: 0.0156 µM
[26]
  TGI: 4.15 µM
[27]
  TGI: 0.0602 µM
[29]
  TGI: < 0.01 µM
[30]
  TGI: < 0.018 µM
[31]
  TGI: 0.0346 µM
[32]
  TGI: 0.0561 µM
[33]
  TGI: 0.223 µM
[34]
  TGI: < 0.0273 µM
[35]
  TGI: 0.0936 µM
[36]
  TGI: 4.9 µM
[37]
  TGI: 3.91 µM
[38]
  TGI: 0.0805 µM
[39]
  TGI: 0.0112 µM
[40]
  TGI: 0.0379 µM
[41]
  TGI: < 0.01 µM
[42]
  TGI: < 0.0163 µM
[43]
  TGI: < 0.01 µM
[44]
  TGI: 0.202 µM
[45]
  TGI: < 0.015 µM
[46]
  TGI: 0.0855 µM
[47]
  TGI: 0.0253 µM
[48]
  TGI: 0.0224 µM
[49]
  TGI: 0.0369 µM
[50]
  TGI: < 0.0124 µM
[51]
  TGI: 7.21 µM
[52]
  TGI: 0.104 µM
[53]
  TGI: 0.0101 µM
[54]
  TGI: 0.018 µM
[55]
  TGI: < 0.0115 µM
[56]
  TGI: < 0.01 µM
[57]
  TGI: 0.0171 µM
